# According to US7951364B2, “CaR receptor as a mediator of migratory cell chemotaxis and/or chemokinesis” (The General Hospital Corporation, priority 2000, dated 2011):
# “And” between values parts separate entries of the source, which are not always exact repeats. Equal entries are not always repeated.
# What was measured:
# [1] = test system: CCR-2; assay: Chemokine receptor expression on monocytes by flow cytometry: CCR-2; assay type: cell-based, human
# Protocol: Chemokine receptor expression and flow cytometric analysis.
# Table 1: Exposure of CD14^+ monocytes to Ca^++ enhances CCR2 expression in a dose dependent manner. Monocytes were exposed to varying concentrations of Ca^++ and to the selective CaR activator, NPS R-467 (1 μM), or to NPS S-467 (1 μM) in the presence of 1.5 mM Ca^++. The median fluorescence intensity for CCR2 expression was measured for each Ca^++ concentration and in the presence of NPS R-467 or S-467. Mean values +/−s.e.m. from three independent experiments are shown.
# [2] = target: T1, CaR (Homo sapiens, UniProt P41180); assay: Cytosolic calcium changes in purified monocytes (Indo-1/AM, flow cytometry); assay type: cell-based
# T1 construct: endogenous in cells; host or cells: peripheral blood CD14+ monocytes, sorted by FACS
# T1 sequence (P41180 20-1078): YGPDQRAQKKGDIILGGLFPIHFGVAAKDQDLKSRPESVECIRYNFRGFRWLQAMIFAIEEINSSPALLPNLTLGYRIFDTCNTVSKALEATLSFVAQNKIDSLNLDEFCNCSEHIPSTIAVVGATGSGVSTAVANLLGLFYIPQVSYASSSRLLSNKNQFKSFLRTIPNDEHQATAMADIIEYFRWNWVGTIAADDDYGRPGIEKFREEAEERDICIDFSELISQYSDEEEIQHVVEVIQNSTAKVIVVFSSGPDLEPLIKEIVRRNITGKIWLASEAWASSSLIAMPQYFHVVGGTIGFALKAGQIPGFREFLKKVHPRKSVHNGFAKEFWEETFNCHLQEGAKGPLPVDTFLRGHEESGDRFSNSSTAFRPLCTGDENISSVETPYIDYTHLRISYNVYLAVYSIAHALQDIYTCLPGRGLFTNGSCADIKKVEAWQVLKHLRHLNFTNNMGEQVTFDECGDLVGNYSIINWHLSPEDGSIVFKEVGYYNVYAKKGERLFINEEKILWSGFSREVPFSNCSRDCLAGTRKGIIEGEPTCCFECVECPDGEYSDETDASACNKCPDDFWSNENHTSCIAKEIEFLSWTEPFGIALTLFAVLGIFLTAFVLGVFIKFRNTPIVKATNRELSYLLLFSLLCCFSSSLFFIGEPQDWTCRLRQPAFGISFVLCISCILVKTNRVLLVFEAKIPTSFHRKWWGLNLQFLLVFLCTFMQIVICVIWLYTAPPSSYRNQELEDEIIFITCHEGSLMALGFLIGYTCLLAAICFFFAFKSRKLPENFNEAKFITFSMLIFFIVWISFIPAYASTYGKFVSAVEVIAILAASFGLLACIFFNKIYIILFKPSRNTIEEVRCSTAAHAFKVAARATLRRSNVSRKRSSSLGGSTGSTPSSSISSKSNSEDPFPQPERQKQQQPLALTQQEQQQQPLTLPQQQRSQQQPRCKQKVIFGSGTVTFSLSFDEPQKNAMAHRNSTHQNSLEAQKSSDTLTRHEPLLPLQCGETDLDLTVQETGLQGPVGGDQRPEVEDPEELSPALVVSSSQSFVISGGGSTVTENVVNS
# Protocol: Preparation of peripheral blood CD14^+ monocytes. Low density cells were isolated from human and mouse peripheral blood using Ficoll-Hypaque (Pharmacia, Piscataway, N.J.). CD14^+ monocytes were purified by sorting on FACSVantage (Becton Dickinson, San Jose, Calif.) based on CD14 expression. Purified cells were incubated in either calcium-free medium (Hanks' Balanced Salt Solution 1×, CellGro, Hermdon. VA) or Iscove's Medium 1×(Mod) (CellGro, Herndon, Va.) which contains 1.5 mM Ca++. […] Cells were incubated for up to 24 hours in 5% CO2 humidified air. Monocytes were then detached from the plate using a cell scraper. All calcium concentrations indicated in the presentation of the data represent the total Ca^++ present in the basal medium plus any added Ca^++.
# Cytosolic calcium changes. Purified monocytes were loaded with Indo-1/AM (Molecular Probes, Eugene, Oreg.). Cells were collected on FACSVantage for 0.30 sec to establish a baseline emission value for Indo-1/AM. […] Data acquisition then continued for up to 5 minutes.
smiles,measurement,setting,value
"[Ca+2].[Cl-].[Cl-] [Ca^++, calcium chloride]",Cell surface CCR-2 expression,[1],up-modulation
same,Mean fluorescent intensity -CCR-2 Mean +/− s.e.m.,[1],278 +/− 39 and 296 +/− 35 and 307 +/− 35
same,Increase in cytosolic calcium,[2]; 4.5 mM Ca^++,Sustained increases
same,Extracellular Ca^++ concentration giving maximal cytosolic Ca^++ response,"[2]; monocytes, dose dependent",4.5 mM
